Several values for one entry are separate records, joined by “and”; a condition that tells them apart may be missing. Equal entries are not always repeated.
Tests used:
[1] = biological target: T1, recombinant full length LRRK2 (Homo sapiens, UniProt Q5S007); test: Recombinant cellular LRRK2 AlphaScreen assay; assay type: cell-based; conditions: LRRK2 Ser935 phosphorylation, SH-SY5Y cells over-expressing recombinant full length LRRK2; read-out: pIC50 in the recombinant cellular LRRK2 AlphaScreen assay (converted)
T1 construct: A BacMam virus expressing full length recombinant LRRK2 was purchased from Invitrogen; host or cells: SH-SY5Y human neuroblastoma cells transduced with BacMam LRRK2 virus (MOI 50)
Procedure, shortened: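 SH-SY5Y neuroblastoma cells transduced with BacMam full-length human LRRK2 (MOI 50, 24 h) were treated with compounds for 60 min at 37 °C, top final 10 µM. Lysates probed by AlphaScreen for pSer935 versus total LRRK2; sigmoidal dose-response fit.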

[2] = biological target: T2, Full length G2019 human LRRK2 (Homo sapiens, UniProt Q5S007); test: Full length G2019 human LRRK2 Inhibition Mass Spectrometry assay; assay type: biochemical; conditions: LRRKtide substrate, RapidFire mass spectrometry; read-out: pIC50 in the Full length G2019 human LRRK2 Inhibition Mass Spectrometry assay (converted)
T2 construct: purified recombinant Full length Flag-LRRK2 in assay buffer; made in house; host or cells: HEK293 6E cells transduced with BacMam virus (virus generated in Sf9 cells)
Method: a. Full Length G2019 Human LRRK2 Inhibition Mass Spectrometry Assay
This assay for Leucine Rich Repeat Kinase 2 (LRRK2) inhibition is based on the direct measurement of the peptide ‘LRRKtide’ (LRRKtide: RLGRDKYKT*LRQIRQ and “*” refers to the site of phosphorylation.) and phosphorylated ‘LRRKtide’ using a high throughput RapidFire mass spectrometry assay. Inhibitors are compounds that reduce the conversion of LRRKtide to phospho-LRRKtide.
HEK293 6E cells were incubated in a 37° C. incubator with a humidified atmosphere of 5% CO2 on an orbital shaker rotating at 110 rpm. On the day of transduction, the cell viability was higher than 98% and the cell density was in the range of 1×10^6˜1.5×10^6 cells/ml. HEK293 6E cells were centrifuged at 1,000 rpm for 10 min, and then the cells were resuspended in fresh Freestyle 293 expression medium (Invitrogen:12338) with 0.1% F-68 (Invitrogen:24040-032) but without antibiotics (G418) at density of 1×10^6 cells/ml. BacMam virus with Flag-hu LRRK2 (genotypically normal) gene was centrifuged at 40,000 g for 2 hours, then resuspended in fresh Freestyle 293 expression medium. The resuspended virus was added into the cells in at MOI of 10. The cells were incubated in a 37° C. incubator with a humidified atmosphere of 5% CO2 in air on an orbital shaker rotating at 110 rpm. Cultures were harvested at approximately 48 hours post-transduction by centrifugation at 4,000 rpm for 20 min and pellets were frozen for purification.
The suspended cells were lysed by sonication on ice for 30 min (2 secs on/4 sec off, 20% amplitude), and centrifuged at 10,000 rpm for 30 minutes at 4° C. The supernatant was incubated with 1 mL per litre of cell culture of anti-Flag magnetic beads (Sigma-Aldrich: M8823) at 4° C. for 3 hours, then the beads were washed by 5 mL (5 column volume) binding buffer (50 mM Tris pH7.5@ 4C, 500 mM NaCl, 0.5 mM EDTA, 0.1% TritonX-100, 10% glycerol, freshly add 2 mM DTT) for three times. The Flag tagged LRRK2 proteins were eluted by Elution buffer (50 mM Tris pH7.5@ 4C, 500 mM NaCl, 0.5 mM EDTA, 0.1% TritonX-100, 10% glycerol, freshly add 2 mM DTT, 250 ug/ml Flag peptide (Sigma-Aldrich:F3290)) at 4° C. for 2 hours. Flag peptide was removed by Zeba Spin Desalting Columns, 7K MWCO (Thermo-Fisher: 89893) and the buffer of eluted LRRK2 proteins was exchanged into Storage Buffer (50 mM Tris pH7.5@4C, 150 mM NaCl, 0.5 mM EDTA, 0.02% Triton X-100, 2 mM DTT and 50% Glycerol) using Amicon Ultra Centrifugal Filter Units (100 kD) (Merck: UFC910096). Fractions containing LRRK2 proteins were pooled, aliquoted and stored at −80° C. Protein concentration was determined by Bradford protein assay, and protein purity was analyzed by NuPAG Novex 4-12% Bis-Tris Protein Gels (Invitrogen: NP0322BOX).
• 1) A 10 mM test compound was dissolved in 100% DMSO and serially diluted 1 in 4. 100 nL of this dilution series was then added to a 384 well, v bottom polypropylene plate, excluding columns 6 and 18. 100 nL of DMSO was added to columns 6 and 18 as controls wells. Assay dilution gave a top final assay concentration of test compound of 100 μM • 2) 50 μl of 1% formic acid in laboratory grade water was added to column 18 using a multidrop combi dispenser to act as a pre stopped assay control. • 3) 5 μl of ‘enzyme solution’ containing 50 nM of purified recombinant Full length Flag-LRRK2 in assay buffer (50 mM Hepes (pH 7.2), 10 mM MgCl2, 150 mM NaCl, 5% glycerol, 0.0025% triton X-100 and 1 mM DTT) was added to all wells using a multidrop combi dispenser, giving a final assay concentration of 25 nM LRRK2 enzyme. […] Test plates were then incubated for 30 minutes at room temperature. • 4) 5 μl ‘substrate solution’ containing 50 uM LRRKtide peptide substrate and 4 mM ATP was added to all wells of the plate using a multidrop combi dispenser giving a final assay concentration of 25 uM LRRKtide and 2 mM ATP. Test plates were then incubated for 1 hour at room temperature. […]

T2 sequence (Q5S007 with tags, fused parts or gaps R50H): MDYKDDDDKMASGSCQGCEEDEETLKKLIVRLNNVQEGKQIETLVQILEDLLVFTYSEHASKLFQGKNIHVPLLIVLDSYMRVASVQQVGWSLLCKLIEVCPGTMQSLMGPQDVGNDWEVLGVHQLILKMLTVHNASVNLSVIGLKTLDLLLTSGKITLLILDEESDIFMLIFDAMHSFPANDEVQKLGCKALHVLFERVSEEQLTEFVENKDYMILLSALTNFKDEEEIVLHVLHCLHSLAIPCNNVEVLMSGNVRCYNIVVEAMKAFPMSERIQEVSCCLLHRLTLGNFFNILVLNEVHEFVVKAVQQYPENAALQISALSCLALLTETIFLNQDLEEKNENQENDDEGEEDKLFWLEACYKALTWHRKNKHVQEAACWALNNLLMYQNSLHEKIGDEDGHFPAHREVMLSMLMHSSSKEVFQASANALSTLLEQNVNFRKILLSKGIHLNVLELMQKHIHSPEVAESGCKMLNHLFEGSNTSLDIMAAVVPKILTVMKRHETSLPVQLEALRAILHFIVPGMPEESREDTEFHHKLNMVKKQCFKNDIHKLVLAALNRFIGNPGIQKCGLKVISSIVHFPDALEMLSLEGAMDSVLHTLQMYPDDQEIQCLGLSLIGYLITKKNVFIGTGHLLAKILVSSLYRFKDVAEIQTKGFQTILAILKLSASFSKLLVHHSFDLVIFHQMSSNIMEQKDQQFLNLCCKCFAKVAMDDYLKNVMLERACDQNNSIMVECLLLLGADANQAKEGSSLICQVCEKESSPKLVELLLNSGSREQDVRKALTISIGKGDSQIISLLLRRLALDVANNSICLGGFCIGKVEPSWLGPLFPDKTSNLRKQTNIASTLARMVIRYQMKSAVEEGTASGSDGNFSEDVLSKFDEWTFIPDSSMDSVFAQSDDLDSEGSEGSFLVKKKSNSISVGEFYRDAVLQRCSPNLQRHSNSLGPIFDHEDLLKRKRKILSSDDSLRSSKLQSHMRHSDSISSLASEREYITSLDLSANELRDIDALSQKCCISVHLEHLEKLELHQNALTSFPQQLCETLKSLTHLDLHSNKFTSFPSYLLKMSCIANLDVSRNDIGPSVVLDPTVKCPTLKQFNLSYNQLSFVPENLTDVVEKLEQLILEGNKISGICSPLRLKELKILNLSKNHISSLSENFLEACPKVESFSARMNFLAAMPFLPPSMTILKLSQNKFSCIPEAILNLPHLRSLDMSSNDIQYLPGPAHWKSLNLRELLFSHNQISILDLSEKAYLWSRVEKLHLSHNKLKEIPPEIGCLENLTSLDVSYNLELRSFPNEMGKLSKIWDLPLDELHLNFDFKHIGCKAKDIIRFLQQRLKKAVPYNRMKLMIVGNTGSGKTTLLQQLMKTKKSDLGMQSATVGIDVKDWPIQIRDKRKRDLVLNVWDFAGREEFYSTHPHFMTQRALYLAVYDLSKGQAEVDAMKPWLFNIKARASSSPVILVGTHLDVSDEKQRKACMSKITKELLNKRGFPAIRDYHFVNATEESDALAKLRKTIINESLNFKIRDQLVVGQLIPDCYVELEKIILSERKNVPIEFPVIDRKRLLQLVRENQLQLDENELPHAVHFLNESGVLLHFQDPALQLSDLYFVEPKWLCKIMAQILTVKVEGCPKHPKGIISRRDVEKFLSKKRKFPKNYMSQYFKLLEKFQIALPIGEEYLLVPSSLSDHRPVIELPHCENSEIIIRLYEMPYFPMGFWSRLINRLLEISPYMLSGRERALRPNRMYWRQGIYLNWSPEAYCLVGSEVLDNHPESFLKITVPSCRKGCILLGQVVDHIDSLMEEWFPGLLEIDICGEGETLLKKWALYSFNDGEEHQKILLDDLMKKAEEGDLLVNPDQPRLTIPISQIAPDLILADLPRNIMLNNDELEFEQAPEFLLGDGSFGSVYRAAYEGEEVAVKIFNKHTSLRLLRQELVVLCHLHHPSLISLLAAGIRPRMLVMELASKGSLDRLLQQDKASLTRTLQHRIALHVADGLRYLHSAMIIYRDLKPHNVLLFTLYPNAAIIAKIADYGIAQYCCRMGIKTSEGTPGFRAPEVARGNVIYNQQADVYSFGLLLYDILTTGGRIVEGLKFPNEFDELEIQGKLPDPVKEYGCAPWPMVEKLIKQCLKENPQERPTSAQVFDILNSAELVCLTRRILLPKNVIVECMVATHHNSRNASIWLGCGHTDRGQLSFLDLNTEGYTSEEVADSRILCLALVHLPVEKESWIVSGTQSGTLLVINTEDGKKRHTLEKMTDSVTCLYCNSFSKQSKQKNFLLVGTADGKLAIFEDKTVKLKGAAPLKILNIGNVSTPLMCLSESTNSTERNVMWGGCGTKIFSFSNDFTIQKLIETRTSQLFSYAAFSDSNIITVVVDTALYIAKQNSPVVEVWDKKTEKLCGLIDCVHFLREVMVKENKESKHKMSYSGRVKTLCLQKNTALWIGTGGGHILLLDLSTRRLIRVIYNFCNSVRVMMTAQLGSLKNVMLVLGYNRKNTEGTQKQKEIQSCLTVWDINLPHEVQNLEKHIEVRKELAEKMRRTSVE
T1 sequence (Q5S007 whole entry): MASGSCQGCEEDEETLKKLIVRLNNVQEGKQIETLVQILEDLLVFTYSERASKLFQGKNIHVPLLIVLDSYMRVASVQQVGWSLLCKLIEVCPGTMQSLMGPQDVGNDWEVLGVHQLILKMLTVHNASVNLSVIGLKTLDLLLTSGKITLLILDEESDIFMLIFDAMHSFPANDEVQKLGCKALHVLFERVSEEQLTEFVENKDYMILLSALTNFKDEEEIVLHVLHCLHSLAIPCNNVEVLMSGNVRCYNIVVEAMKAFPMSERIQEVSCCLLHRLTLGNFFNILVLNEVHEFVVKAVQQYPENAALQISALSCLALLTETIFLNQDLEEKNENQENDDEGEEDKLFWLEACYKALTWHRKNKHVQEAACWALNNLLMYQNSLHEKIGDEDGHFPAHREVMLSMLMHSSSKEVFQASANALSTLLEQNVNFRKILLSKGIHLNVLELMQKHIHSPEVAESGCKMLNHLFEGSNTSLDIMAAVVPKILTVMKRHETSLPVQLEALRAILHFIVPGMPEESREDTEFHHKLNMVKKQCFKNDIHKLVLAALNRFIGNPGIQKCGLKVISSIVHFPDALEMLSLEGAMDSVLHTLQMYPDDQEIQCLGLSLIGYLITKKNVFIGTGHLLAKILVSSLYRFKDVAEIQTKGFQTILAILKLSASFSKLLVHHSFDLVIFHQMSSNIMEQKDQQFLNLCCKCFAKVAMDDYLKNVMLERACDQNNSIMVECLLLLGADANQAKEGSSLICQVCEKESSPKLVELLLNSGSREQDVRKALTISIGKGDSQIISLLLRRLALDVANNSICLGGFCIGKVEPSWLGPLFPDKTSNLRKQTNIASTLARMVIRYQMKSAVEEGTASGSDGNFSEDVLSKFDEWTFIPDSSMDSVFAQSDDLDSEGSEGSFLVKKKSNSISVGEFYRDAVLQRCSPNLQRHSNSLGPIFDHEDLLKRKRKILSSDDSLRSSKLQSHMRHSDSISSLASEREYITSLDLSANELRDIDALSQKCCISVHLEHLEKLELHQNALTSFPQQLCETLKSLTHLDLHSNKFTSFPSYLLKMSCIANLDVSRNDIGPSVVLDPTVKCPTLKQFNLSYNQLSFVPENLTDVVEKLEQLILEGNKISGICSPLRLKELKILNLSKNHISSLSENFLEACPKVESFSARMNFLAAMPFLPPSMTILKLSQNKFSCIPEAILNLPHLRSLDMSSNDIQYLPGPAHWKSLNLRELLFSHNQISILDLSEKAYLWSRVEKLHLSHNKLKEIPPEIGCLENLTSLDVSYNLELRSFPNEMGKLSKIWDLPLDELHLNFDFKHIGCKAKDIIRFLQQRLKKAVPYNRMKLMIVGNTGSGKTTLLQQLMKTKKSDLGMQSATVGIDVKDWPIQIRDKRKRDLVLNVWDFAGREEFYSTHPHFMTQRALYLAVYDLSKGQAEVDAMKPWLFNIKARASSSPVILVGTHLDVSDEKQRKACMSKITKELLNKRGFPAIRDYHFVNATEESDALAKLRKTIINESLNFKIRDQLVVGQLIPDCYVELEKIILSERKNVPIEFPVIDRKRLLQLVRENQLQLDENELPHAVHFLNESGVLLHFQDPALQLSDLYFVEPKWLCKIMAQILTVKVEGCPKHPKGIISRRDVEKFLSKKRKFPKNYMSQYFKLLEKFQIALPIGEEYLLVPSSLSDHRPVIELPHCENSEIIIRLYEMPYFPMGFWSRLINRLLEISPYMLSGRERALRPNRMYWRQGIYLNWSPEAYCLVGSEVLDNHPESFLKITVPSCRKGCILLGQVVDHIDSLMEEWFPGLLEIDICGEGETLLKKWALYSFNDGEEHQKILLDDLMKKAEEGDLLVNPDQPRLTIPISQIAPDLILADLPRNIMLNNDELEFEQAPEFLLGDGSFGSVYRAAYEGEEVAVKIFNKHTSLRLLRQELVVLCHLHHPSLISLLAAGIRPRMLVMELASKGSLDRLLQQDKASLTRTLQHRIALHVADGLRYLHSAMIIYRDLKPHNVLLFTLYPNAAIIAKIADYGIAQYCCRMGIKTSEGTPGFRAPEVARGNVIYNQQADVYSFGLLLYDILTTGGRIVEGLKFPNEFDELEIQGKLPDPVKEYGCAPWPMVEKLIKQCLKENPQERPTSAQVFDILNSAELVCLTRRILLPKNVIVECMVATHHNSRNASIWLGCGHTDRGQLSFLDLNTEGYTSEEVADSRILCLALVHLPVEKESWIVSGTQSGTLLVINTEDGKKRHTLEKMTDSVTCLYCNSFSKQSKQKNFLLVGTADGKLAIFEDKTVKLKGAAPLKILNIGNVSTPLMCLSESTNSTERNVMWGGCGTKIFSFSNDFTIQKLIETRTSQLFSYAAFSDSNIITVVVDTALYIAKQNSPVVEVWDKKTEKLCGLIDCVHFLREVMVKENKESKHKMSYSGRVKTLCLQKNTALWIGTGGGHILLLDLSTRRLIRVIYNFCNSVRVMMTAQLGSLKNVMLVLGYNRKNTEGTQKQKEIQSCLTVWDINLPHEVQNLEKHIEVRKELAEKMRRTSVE

`Cc1nc(N2CCO[C@@H](CO)C2)cc(-n2ncc3cc(Cl)c(C4CCN(C5CCOC5)CC4)cc32)n1` (single isomer, unassigned) [Example E130] gave an IC50 [1] of no more than 100 nM and an IC50 [2] of no more than 100 nM.

For `Cc1nc(N2CCOC(C)(CO)C2)cc(-n2ncc3cc(C)c(C4CCN([C@H]5CCOC5)CC4)cc32)n1` (stereo partly drawn) [Example E156, (2-methyl-4-(2-methyl-6-(5-methyl-6-(1-((S)-tetrahydrofuran-3-yl)piperidin-4-yl)-1H-indazol-1-yl)pyrimidin-4-yl)morpholin-2-yl)methanol], the IC50 [1] was no more than 1000 nM and the IC50 [2] was no more than 100 nM.

With `Cc1nc(N2CCO[C@H](CO)C2)cc(-n2ncc3cc(C)c(C4CCN(C5CCOC5)CC4)cc32)n1` (single isomer, unassigned) [Example E1] the IC50 [1] was ≤ 100 nM and 126 nM and the IC50 [2] was 79.4 nM.

`Cc1nc(N[C@H]2C[C@@H](O)C2)cc(-n2ncc3cc(C)c(C4CCN(C5CCOC5)CC4)cc32)n1` (single isomer, unassigned) [Example E133, Cis-3-((2-methyl-6-(5-methyl-6-(1-(tetrahydrofuran-3-yl)piperidin-4-yl)-1H-indazol-1-yl)pyrimidin-4-yl)amino)cyclobutanol] gave an IC50 [1] of no more than 1000 nM and an IC50 [2] of no more than 1000 nM.

`Cc1nc(N2CCO[C@H](CO)C2)cc(-n2ncc3cc(C)c(C4CCN(C5COCC5O)CC4)cc32)n1` (single isomer, unassigned) [Example E153] was tested, and the IC50 [1] was no more than 100 nM and the IC50 [2] was no more than 100 nM.

Compound `[2H]c1nn(-c2cc(N3CCO[C@@H](CO)C3)nc(C)n2)c2cc(C3CCN([C@@H]4CCOC4)CC3)c(C)cc12` [Example E94, ((R)-4-(6-(3-deuterium-5-methyl-6-(1-((R)-tetrahydrofuran-3-yl)piperidin-4-yl)-1H-indazol-1-yl)-2-methylpyrimidin-4-yl)morpholin-2-yl)methanol] has an IC50 [1] of no more than 1000 nM and an IC50 [2] of no more than 100 nM.

Compound `Cc1nc(N2CCO[C@@H](CO)C2)cc(-n2ncc3cc(C)c(C4CCN([C@H]5CCOC5)CC4)cc32)n1` (single isomer, unassigned) [Example E4] has an IC50 [1] of 100 nM and an IC50 [2] of 25.1 nM.

`Cc1nc(N2CCOC(C(C)O)C2)cc(-n2ncc3cc(C)c(C4CCN(C5CCOC5)CC4)cc32)n1` (single isomer, unassigned) [Example E139, 1-(4-(2-methyl-6-(5-methyl-6-(1-(tetrahydrofuran-3-yl)piperidin-4-yl)-1H-indazol-1-yl)pyrimidin-4-yl)morpholin-2-yl)ethanol] gave an IC50 [1] of no more than 1000 nM and an IC50 [2] of no more than 1000 nM.

`COc1nc(N2CCO[C@H](CO)C2)cc(-n2ncc3cc(C)c(C4CCN(C5CCOC5)CC4F)cc32)n1` (single isomer, unassigned) [Example E124] showed an IC50 [1] of no more than 100 nM and an IC50 [2] of no more than 100 nM.

For `Cc1nc(N2CCOC(C(C)O)C2)cc(-n2ncc3cc(C)c(C4CCN(C5CCOC5)CC4)cc32)n1` (single isomer, unassigned) [Example E138, 1-(4-(2-methyl-6-(5-methyl-6-(1-(tetrahydrofuran-3-yl)piperidin-4-yl)-1H-indazol-1-yl)pyrimidin-4-yl)morpholin-2-yl)ethanol], the IC50 [1] was ≤ 100 nM and 63.1 nM and the IC50 [2] was ≤ 100 nM and 25.1 nM.

Compound `COc1nc(N2CCO[C@@H](CO)C2)cc(-n2ncc3cc(C)c(C4CCN(C5CCOC5)CC4F)cc32)n1` (single isomer, unassigned) [Example E120] has an IC50 [1] of no more than 10 nM and an IC50 [2] of no more than 10 nM.

`Cc1nc(N2CCOC(C(C)O)C2)cc(-n2ncc3cc(C)c(C4CCN(C5CCOC5)CC4)cc32)n1` (single isomer, unassigned) [Example E135, 1-(4-(2-methyl-6-(5-methyl-6-(1-(tetrahydrofuran-3-yl)piperidin-4-yl)-1H-indazol-1-yl)pyrimidin-4-yl)morpholin-2-yl)ethanol] was tested, and the IC50 [1] was no more than 100 nM and the IC50 [2] was no more than 100 nM.

From US20210130339A1, “COMPOUNDS” (GLAXOSMITHKLINE INTELLECTUAL PROPERTY DEVELOPMENT LIMITED, priority 2017, published 2021)
